According to patent publication US7601355B2, “Compositions and methods for altering immune function” (Northwestern University, priority 2005, dated 2009):
Entries after “also recorded” stand apart in the source; their conditions may differ.

What was measured:
[1] = system: experimental autoimmune encephalomyelitis (EAE); test: mouse model of experimental autoimmune encephalomyelitis (EAE), PLP139-151 peptide in CFA; type: in vivo
Protocol: Experiments were conducted to confirm that the small molecules could stabilize and therefore enhance Th1 effector function in vivo. Efficacy was tested in a mouse model of experimental autoimmune encephalomyelitis (EAE), a model of Multiple Sclerosis (MS) (See, e.g., Karlsson et al., The Journal of Immunology, 2003, 170: 1019-1026).
EAE is dependent upon CD154-CD40 interactions in the central nervous system (CNS). Initial experiments were carried out to determine the effects of these small molecules on clinical disease severity in an optimal process of induction of EAE. The compounds should not modify the severity of clinical disease over that of the vehicle control treated animals, but enhancement and prolonged Th1 responses peripherally may be observed. Second, experiments were conducted to address whether the severity and/or incidence of EAE disease could be enhanced by the small molecule therapy in mice immunized with suboptimal myelin antigenic peptide, such that the small molecules might enhance in vivo functional activity of the antigen specific Th1 cells induced in these mice, that normally would have low incidence and severity of clinical disease.
Mice were immunized with PLP139-151-peptide in CFA and treated on days 9 and 10 with 100 nmol JFPH in olive oil or vehicle alone. Clinical disease was then evaluated. Clinical severity was assessed on a 0 to 5 scale as follows: grade 1, limp tail; grade 2, limp tail and hind limb weakness (waddling gait); grade 3, partial hind limb paralysis; grade 4, complete hind limb paralysis; and grade 5, moribund. The data are plotted as the daily mean clinical score for all animals in a particular treatment group, and mean day of onset for each mouse was determined and plotted (See, FIG. 5(b)) as a box and whisker plot. When optimal EAE induction was carried out using 50 μg doses of PLP139-151 peptide, disease severity was not affected by treatment with 100 nmol JFPH on days 9 and 10 post-immunization. However, the mean day of disease onset was earlier in the JFPH treated mice compared to vehicle controls (p<0.0001) as determined by a Wilcoxon Sign-Rank test.
In experiments where suboptimal induction of EAE was induced with 25 μg doses of PLP139-151 peptide, the incidence of disease was low for vehicle treated mice (60%) compared to that of JFPH treated mice (100%). Briefly, mice were immunized with 25 μg PLP139-151-peptide in CFA and treated on days 0, 1, 8 and 9 with 100 nmol JFPH in olive oil or vehicle of olive oil alone (FIG. 6, treatment days marked by downward triangles). Clinical disease was evaluated and the cumulative mean clinical scores determined by addition of scores cumulatively with each subsequent day of evaluation (FIG. 6, right panel). The average maximum score for vehicle treated mice was 1.2 (due in part to one individual mouse) versus 1.8 for JFPH treated mice, and in both mean day of onset and mean day of peak disease severity, the JFPH treated mice reached these time points an average of 3 days earlier than that of vehicle treated mice.

[2] = system: co-cultures of DC-T cells; test: in vitro screen: IFN-γ secretion in DO11.10 T cell / OVA323-339-peptide loaded dendritic cell co-cultures; type: cell-based, mice; conditions: for IFN-γ enhancement at the highest concentration: 64:1 ratio, 1000 ng/ml; for IFN-γ secretion compared to control samples: initial screen, 16:1 and 64:1 T:DC co-cultures
Protocol: (§1) The initial biological screen for the selected small molecule compounds was based in functional characteristics of enhancement of Th1 function and secretion of Th1 cytokines (e.g., Interferon-γ (IFN-γ)). In this process, dendritic cells (DC) were obtained by GM-CSF stimulation of bone marrow stem cells for 6 days, pulsed for 18 hours with OVA323-339 peptide to load specific antigen on these antigen presenting cells and then purified using CD11c magnetic bead separation. This population of cells is routinely >98% CD11c positive, as determined by flow cytometry. Transgenic T cells with specificity for the ovalbumin 323-339 epitope (OVA323-339) were obtained from naïve spleens of DO11.10 transgenic mice. The splenic cells were harvested and magnetic beads used to isolate the CD4 T cell population. This latter population of cells is routinely >95% CD4^+. The cells were then co-cultured in round-bottomed 96 well tissue culture plates, at varying ratios, maintaining 2×10^5 CD4^+ T cells in each well, and varying the number of dendritic cells added (See FIG. 2).
The in vitro screen for functional activity was based on two parameters. The first parameter, ^3H-thymidine incorporation measuring proliferation of OVA323-339-peptide-specific DO11.10 T cells cultured in the presence of OVA323-339-peptide pulsed GM-CSF derived dendritic cells, should not be affected by CD154-CD40 interactions, and thus was used as a screen for non-specific toxicity of the compounds to immune cell co-cultures. The second parameter, which is controlled in the DO11.10 T cell —OVA323-339-peptide loaded dendritic cell co-cultures by CD40 ligation, is that of Interferon-γ secretion by the activated T cells.
Thus, it was hypothesized that if it was possible to enhance immune function by stabilization of CD154-CD40 ligand pair interactions through prolonged stability of CD154 homotrimers, then IFN-γ production should be increased by addition of the small molecule compounds.
An initial screen was carried out with 18 compounds, using the in vitro screening process established in Example 2, above. Initially, all 18 compounds were evaluated for toxicity at 5 mM and 0.1 μM, by evaluation of proliferation of 16:1 and 64:1 ratio T:DC co-cultures. Second, expression of IFN-γ was observed and compared to that of control samples. Of the initial 18 small molecule compounds, 5 compounds were eliminated at this early stage because they inhibited T cell proliferation and were toxic to the cells in culture. […] These two compounds, JFPH and JFPB, were selected for further study, as described below.
Small molecules in DMSO vehicle were added at various dilutions to co-cultures of DC-T cells and after four days supernatants characterized for the production of IFNγ. […]

[3] = system: syngeneic renal cell carcinoma (RCC) cells; test: sub-cutaneous renal cell carcinoma tumor model; type: in vivo, Balb/c mice; conditions: various concentrations, i.p. in olive oil 3x/week for 3 weeks from day 3
Protocol: (§2) In order to evaluate the efficacy of JFPH in a murine tumor model, Balb/c mice were first injected with syngeneic renal cell carcinoma (RCC) cells. The injections were delivered either sub-cutaneously or orthotopically under the kidney capsule (intra-renal). JFPH drug was diluted in olive oil to a desired concentration. Mice were injected with JFPH in olive oil intra-peritoneally 3×/week for a total of 3 weeks, beginning on day 3 post-tumor cell injection. As a vehicle control, mice were administered with only olive oil (no JFPH). For the sub-cutaneous tumor model, primary tumors were measured with calipers 3×/week and the tumor area was calculated. For the intra-renal tumor model, mice were euthanized on day 21 post tumor-cell injection and the lungs were harvested and placed in fixative. The number of lung metastases were then counted under a dissecting microscope.

[4] = system: syngeneic renal cell carcinoma (RCC) cells; test: intra-renal renal cell carcinoma tumor model, lung metastases; type: in vivo, Balb/c mice; conditions: 500 nmoles i.p. in olive oil 3x/week for 3 weeks
Protocol: as §2

DO11.10 T cells = test: in vitro screen: 3H-thymidine proliferation of DO11.10 T cells co-cultured with OVA323-339-pulsed dendritic cells (non-specific toxicity screen); type: cell-based, mice; conditions: 5 mM and 0.1 μM; 16:1 and 64:1 ratio T:DC co-cultures
Protocol: as §1, with “2). […]” for “2).”
An initial screen was carried out with 18 compounds, using the in vitro screening process established in Example 2, above. Initially, all 18 compounds were evaluated for toxicity at 5 mM and 0.1 μM, by evaluation of proliferation of 16:1 and 64:1 ratio T:DC co-cultures. […]

[5] = suboptimal EAE induction, 25 μg PLP139-151
[6] = suboptimal EAE induction, 25 μg PLP139-151, 100 nmol days 0, 1, 8 and 9

Structure (SMILES): FC(F)(F)c1cc(N2CCCCCCC2)c2c(Cl)cc(Cl)cc2n1 [JFPH, 4-azocan-1-YL-5,7-dichloro-2-(trifluoromethyl)quinoline]
- disease onset ([1]; EAE induced under suboptimal conditions): accelerated disease onset
- mean day of onset ([1]; optimal EAE induction, 50 μg PLP139-151, 100 nmol days 9 and 10, ± standard deviation): 15.47 ± 1.68 days
- disease severity (clinical score 0 to 5) ([1]; optimal EAE induction, 50 μg PLP139-151, 100 nmol in olive oil days 9 and 10): not affected
- disease onset compared to vehicle controls ([1]; optimal EAE induction, 100 nmol days 9 and 10): accelerated disease onset; also recorded: earlier
- disease course longer than vehicle control [1, 5]: 3 days
- mean day of onset, earlier than vehicle treated mice [1, 5]: 3 days
- mean day of peak disease severity, earlier than vehicle treated mice [1, 5]: 3 days
- average maximum score [1, 6]: 1.8
- incidence of disease [1, 6]: 100%
- mean day of remission versus vehicle ([1]; suboptimal EAE induction, remission = reduction of one full score for two days): no difference
- IFN-γ enhancement at the highest concentration [2]: enhancement was observed
- IFN-γ secretion compared to control samples [2]: consistently enhanced IFN-γ secretion
- sub-cutaneous renal cancer tumor growth (tumor area) versus control mice [3]: delays sub-cutaneous growth of renal cancer; also recorded: delayed renal cancer tumor growth
- renal cancer metastasis (number of lung metastases, day 21) versus control mice [4]: reduces renal cancer metastasis; also recorded: significant reduction of renal cancer metastasis
- T cell proliferation (DO11.10 T cells): no effect

Structure (SMILES): CCOC(=O)NC(=O)c1cn(CCNc2ncc(C(F)(F)F)cc2Cl)c(=O)[nH]c1=O [JFPB, ethyl N-[[1-(2-[[3-chloro-5-(trifluoromethyl)-2-pyridinyl]amino]ethyl)-2,4-dioxo-1,2,3,4-tetrahydro-5-pyrimidinyl]carbonyl]carbamate]
- IFN-γ enhancement at the highest concentration [2]: reduced IFN-γ enhancement
- IFN-γ secretion compared to control samples [2]: consistently enhanced IFN-γ secretion
- T cell proliferation (DO11.10 T cells): no effect
